Experimental data from ChEMBL document CHEMBL4665746, “Viennamycins: Lipopeptides Produced by a Streptomyces sp” (J Nat Prod, 2020).
Calls of active or inactive are those of the source.

Key:
Bacillus subtilis [1] = assay: Antimicrobial activity against Bacillus subtilis in presence of >= 5 mM Zn2+; format: functional, organism-based
Bacillus subtilis [2] = assay: Antimicrobial activity against Bacillus subtilis in presence of >= 5 mM Mg2+; format: functional, organism-based
Bacillus subtilis [3] = assay: Antimicrobial activity against Bacillus subtilis in presence of >= 5 mM Mn2+; format: functional, organism-based
Aspergillus niger [4] = assay: Antimicrobial activity against Aspergillus niger CBS 110271; format: functional, organism-based
Bacillus subtilis [5] = assay: Antimicrobial activity against Bacillus subtilis in presence of >= 5 mM Ca2+; format: functional, organism-based
Aspergillus niger [6] = assay: Antimicrobial activity against Aspergillus niger CBS 110271 in presence of >= 5 uM Ca2+; format: functional, organism-based
Fusarium graminearum [7] = assay: Antimicrobial activity against Fusarium graminearum CBS 112.30; format: functional, organism-based
Fusarium graminearum [8] = assay: Antimicrobial activity against Fusarium graminearum CBS 112.30 in presence of >= 5 uM Ca2+; format: functional, organism-based
Saccharomyces cerevisiae [9] = assay: Antimicrobial activity against Saccharomyces cerevisiae BY4742 in presence of >= 5 uM Ca2+; format: functional, organism-based
Saccharomyces cerevisiae [10] = assay: Antimicrobial activity against Saccharomyces cerevisiae BY4742; format: functional, organism-based
Acinetobacter baumannii [11] = assay: Antimicrobial activity against Acinetobacter baumannii 1710; format: functional, organism-based
Acinetobacter baumannii [12] = assay: Antimicrobial activity against Acinetobacter baumannii 1799; format: functional, organism-based
Acinetobacter baumannii [13] = assay: Antimicrobial activity against Acinetobacter baumannii 1710 in presence of >= 5 uM Ca2+; format: functional, organism-based
Acinetobacter baumannii [14] = assay: Antimicrobial activity against Acinetobacter baumannii 1799 in presence of >= 5 uM Ca2+; format: functional, organism-based
Acinetobacter baumannii [15] = assay: Antimicrobial activity against Acinetobacter baumannii MB5973; format: functional, organism-based
Streptomyces coelicolor [16] = assay: Antimicrobial activity against Streptomyces coelicolor A3 in presence of >= 5 uM Ca2+; format: functional, organism-based
Acinetobacter baumannii [17] = assay: Antimicrobial activity against Acinetobacter baumannii MB5973 in presence of >= 5 uM Ca2+; format: functional, organism-based
Streptomyces coelicolor [18] = assay: Antimicrobial activity against Streptomyces coelicolor A3; format: functional, organism-based
Streptococcus pneumoniae [19] = assay: Antimicrobial activity against Streptococcus pneumoniae ATCC 46619; format: functional, organism-based
[20] = test system: Staphylococcus epidermidis; assay: Antimicrobial activity against Staphylococcus epidermidis; format: functional, organism-based
Streptococcus pneumoniae [21] = assay: Antimicrobial activity against Streptococcus pneumoniae ATCC 46619 in presence of >= 5 uM Ca2+; format: functional, organism-based
[22] = test system: Staphylococcus epidermidis; assay: Antimicrobial activity against Staphylococcus epidermidis in presence of >= 5 uM Ca2+; format: functional, organism-based
Staphylococcus aureus [23] = assay: Antimicrobial activity against Staphylococcus aureus MB2865; format: functional, organism-based
Staphylococcus aureus [24] = assay: Antimicrobial activity against Staphylococcus aureus MB2865 in presence of >= 5 uM Ca2+; format: functional, organism-based
Staphylococcus aureus [25] = assay: Antimicrobial activity against methicillin-sensitive Staphylococcus aureus ATCC 29213; format: functional, organism-based
Staphylococcus aureus [26] = assay: Antimicrobial activity against Staphylococcus aureus 1415-10; format: functional, organism-based
Staphylococcus aureus [27] = assay: Antimicrobial activity against methicillin-sensitive Staphylococcus aureus ATCC 29213 in presence of >= 5 uM Ca2+; format: functional, organism-based
Staphylococcus aureus [28] = assay: Antimicrobial activity against Staphylococcus aureus 1415-10 in presence of >= 5 uM Ca2+; format: functional, organism-based
Staphylococcus aureus [29] = assay: Antimicrobial activity against methicillin-resistant Staphylococcus aureus MB5393; format: functional, organism-based
Staphylococcus aureus [30] = assay: Antimicrobial activity against methicillin-resistant Staphylococcus aureus MB5393 in presence of >= 5 uM Ca2+; format: functional, organism-based
MIA PaCa-2 [31] = assay: Cytotoxicity against human MIA PaCa-2 cells assessed as reduction in cell viability; format: functional, cell-based
A2058 [32] = assay: Cytotoxicity against human A2058 cells assessed as reduction in cell viability; format: functional, cell-based
A549 [33] = assay: Cytotoxicity against human A549 cells assessed as reduction in cell viability; format: functional, cell-based
HepG2 [34] = assay: Cytotoxicity against human HepG2 cells assessed as reduction in cell viability; format: functional, cell-based
MIA PaCa-2 [35] = assay: Cytotoxicity against human MIA PaCa-2 cells assessed as reduction in cell viability in presence of >= 5 uM Ca2+; format: functional, cell-based
A2058 [36] = assay: Cytotoxicity against human A2058 cells assessed as reduction in cell viability in presence of >= 5 uM Ca2+; format: functional, cell-based
A549 [37] = assay: Cytotoxicity against human A549 cells assessed as reduction in cell viability in presence of >= 5 uM Ca2+; format: functional, cell-based
HepG2 [38] = assay: Cytotoxicity against human HepG2 cells assessed as reduction in cell viability in presence of >= 5 uM Ca2+; format: functional, cell-based

Measured: Activity

CC[C@H](C)[C@H](NC(=O)[C@H](CC(N)=O)NC(=O)/C=C\C=C\CCC(C)C)C(=O)N[C@H](Cc1ccccc1)C(=O)N[C@H](CC(=O)O)C(=O)N[C@@H](CC(=O)O)C(=O)N[C@@H]1C(=O)N(C)[C@H](C(C)C)C(=O)NCC(=O)NCC(=O)N[C@H](CCC(=O)O)C(=O)N[C@@H](C)C(=O)N2CCC[C@H]2C(=O)O[C@@H]1C
inactive: Bacillus subtilis [1] | Bacillus subtilis [2] | Bacillus subtilis [3] | Aspergillus niger [4] | Bacillus subtilis [5] | Aspergillus niger [6] | Fusarium graminearum [7] | Fusarium graminearum [8] | Saccharomyces cerevisiae [9] | Saccharomyces cerevisiae [10] | Acinetobacter baumannii [11] | Acinetobacter baumannii [12] | Acinetobacter baumannii [13] | Acinetobacter baumannii [14] | Acinetobacter baumannii [15] | Streptomyces coelicolor [16] | Acinetobacter baumannii [17] | Streptomyces coelicolor [18] | Streptococcus pneumoniae [19] | [20] | Streptococcus pneumoniae [21] | [22] | Staphylococcus aureus [23] | Staphylococcus aureus [24] | Staphylococcus aureus [25] | Staphylococcus aureus [26] | Staphylococcus aureus [27] | Staphylococcus aureus [28] | Staphylococcus aureus [29] | Staphylococcus aureus [30] | MIA PaCa-2 [31] | A2058 [32] | A549 [33] | HepG2 [34] | MIA PaCa-2 [35] | A2058 [36] | A549 [37] | HepG2 [38]

CC[C@H](C)[C@H](NC(=O)[C@H](CC(N)=O)NC(=O)/C=C\C=C\CCC(C)C)C(=O)N[C@H](Cc1ccccc1)C(=O)N[C@H](CS(=O)(=O)O)C(=O)N[C@@H](CC(=O)O)C(=O)N[C@@H]1C(=O)N(C)[C@H](C(C)C)C(=O)NCC(=O)NCC(=O)N[C@H](CCC(=O)O)C(=O)N[C@@H](C)C(=O)N2CCC[C@H]2C(=O)O[C@@H]1C
inactive: Bacillus subtilis [1] | Bacillus subtilis [2] | Bacillus subtilis [3] | Aspergillus niger [4] | Bacillus subtilis [5] | Aspergillus niger [6] | Fusarium graminearum [7] | Fusarium graminearum [8] | Saccharomyces cerevisiae [9] | Saccharomyces cerevisiae [10] | Acinetobacter baumannii [11] | Acinetobacter baumannii [12] | Acinetobacter baumannii [13] | Acinetobacter baumannii [14] | Acinetobacter baumannii [15] | Streptomyces coelicolor [16] | Acinetobacter baumannii [17] | Streptomyces coelicolor [18] | Streptococcus pneumoniae [19] | [20] | Streptococcus pneumoniae [21] | [22] | Staphylococcus aureus [23] | Staphylococcus aureus [24] | Staphylococcus aureus [25] | Staphylococcus aureus [26] | Staphylococcus aureus [27] | Staphylococcus aureus [28] | Staphylococcus aureus [29] | Staphylococcus aureus [30] | MIA PaCa-2 [31] | A2058 [32] | A549 [33] | HepG2 [34] | MIA PaCa-2 [35] | A2058 [36] | A549 [37] | HepG2 [38]
